Source: patent US11014895B2, “Heterocyclic urea compound, and drug composition and application thereof” (CHINA PHARMACEUTICAL UNIVERSITY, priority 2017, dated 2021)

How the values were obtained:
IDO1 enzyme = IDO1 enzyme (Homo sapiens, UniProt P14902); assay: Determination of biochemical activity of IDO1 enzyme (absorbance at 320 nm); details: room temperature, 3 hours
Summary of the method: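 Absorbance at 320 nm was measured after a 3-hour room-temperature reaction of enzyme with compound. Phosphate buffer at pH 7-8 was used; inhibition was derived from the absorption ratio and fitted to IC50.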

[1] = molecular target: T1, IDO1 enzyme in the Hela cell (Homo sapiens, UniProt P14902); assay: Cell activity: interferon γ-stimulated Hela cells, absorbance of supernatant at 480 nm; format: cell-based; details: interferon γ 100 ng/ml, 72 hours
T1 construct: endogenous in cells; host or cells: HeLa cells stimulated with interferon γ (100 ng/ml)
T1 sequence (P14902 whole entry): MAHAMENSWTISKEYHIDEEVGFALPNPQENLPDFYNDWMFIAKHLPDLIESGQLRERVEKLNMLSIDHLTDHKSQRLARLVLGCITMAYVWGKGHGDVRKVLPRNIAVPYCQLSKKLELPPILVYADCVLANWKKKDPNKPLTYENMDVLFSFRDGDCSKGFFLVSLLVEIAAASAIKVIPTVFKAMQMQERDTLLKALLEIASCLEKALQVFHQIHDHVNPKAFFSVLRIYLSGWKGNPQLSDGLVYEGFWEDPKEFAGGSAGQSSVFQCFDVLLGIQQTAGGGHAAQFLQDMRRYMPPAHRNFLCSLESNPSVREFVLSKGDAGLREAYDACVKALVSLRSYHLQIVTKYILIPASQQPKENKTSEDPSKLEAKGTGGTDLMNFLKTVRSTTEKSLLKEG
Summary of the method: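 Kynurenine-type readout: supernatant from IFN-γ-stimulated (100 ng/ml final) HeLa cells, 72 h with compound, was acid-hydrolysed with trichloroacetic acid (50 °C, 30 min). After centrifugation, 2% dimethylaminobenzaldehyde/acetic acid added and absorbance measured at 480 nm.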

Sequence of IDO1 enzyme (P14902 whole entry): as above

IC50 (IDO1 enzyme) [µM]	IC50 [1] [µM]	Compound
< 0.001	< 0.001	NCCCNC(=O)Nc1nonc1/C(=N/O)Nc1ccc(F)c(Br)c1 [Embodiment 14, (Z)-1-(4-(N-(3-bromo-4-fluorophenyl)-N′-hydroxyaminoiminomethyl)-1,2,5-oxadiazole-3-substituted)-3-(3-aminopropane)urea]
> 1	> 1	N=C(Nc1ccc(C(F)(F)F)cc1)Nc1nonc1/C(=N/O)Nc1ccc(F)c(Br)c1 [Embodiment 143, (Z)-1-(4-(N-(3-bromo-4-fluorophenyl)-N′-hydroxyaminoiminomethyl)-1,2,5-oxadiazole-3-substituted)-3-(4-trifluorophenyl)guanidine]
< 0.001	< 0.001	O=C(NCCO)Nc1nocc1/C(=N/O)Nc1ccc(F)c(Br)c1 [Embodiment 89, (Z)-1-(4-(N-(3-bromo-4-fluorophenyl)-N′-hydroxyaminoiminomethyl)-isoxazole-3-substituted)+3-(2-hydroxyethyl)urea]
0.1 to 1	0.1 to 1	O=C(Nc1nonc1/C(=N/O)Nc1ccc(F)c(Br)c1)NC1CCOC1 (centres unmarked) [Embodiment 47, (Z)-1-(4-(N-(3-bromo-4-fluorophenyl)-N′-hydroxyaminoiminomethyl)-1,2,5-oxadiazole-3-substituted)-3-(tetrahydrofuran-substituted)urea]
> 1	> 1	N=C(Nc1nonc1/C(=N/O)Nc1ccc(F)c(Br)c1)NC1CCCC1 [Embodiment 146, (Z)-1-(4-(N-(3-bromo-4-fluorophenyl)-N′-hydroxyaminoiminomethyl)-1,2,5-oxadiazole-3-substituted)-3-cyclopentylguanidine]
< 0.001	< 0.001	N=C(Nc1nonc1/C(=N/O)Nc1ccc(F)c(Br)c1)NC1CCC(O)CC1 (centres unmarked) [Embodiment 147, (Z)-1-(4-(N-(3-bromo-4-fluorophenyl)-N′-hydroxyaminoiminomethyl)-1,2,5-oxadiazole-3-substituted)-3-(4-hydroxycyclohexyl)guanidine]
< 0.001	< 0.001	O=C(NCCCO)Nc1conc1/C(=N/O)Nc1ccc(F)c(Br)c1 [Embodiment 109]
0.1 to 1	0.1 to 1	COc1ccc(NC(=N)Nc2conc2/C(=N/O)Nc2ccc(F)c(Cl)c2)cc1 [Embodiment 154, (Z)-1-(4-(N-(3-chloro-4-fluorophenyl)-N′-hydroxyaminoiminomethyl)-isoxazole-3-substituted)-4-(4-methoxyphenyl)guanidine]
< 0.001	< 0.001	Nc1ccc(NC(=O)Nc2nonc2/C(=N/O)Nc2ccc(F)c(Cl)c2)cc1 [Embodiment 24, (Z)-1-(4-(N-(3-chloro-4-fluorophenyl)-N′-hydroxyaminoiminomethyl)-1,2,5-oxadiazole-3-substituted)-3-(4-aminophenyl)urea]
0.1 to 1	0.1 to 1	O=C(Nc1nonc1/C(=N/O)Nc1ccc(F)c(Br)c1)NC1CCC1 [Embodiment 31, (Z)-1-(4-(N-(3-bromo-4-fluorophenyl)-N′-hydroxyaminoiminomethyl)-1,2,5-oxadiazole-3-substituted)-3-cyclobutylurea]
0.1 to 1	0.1 to 1	CS(=O)(=O)N1CCN(C(=O)Nc2nonc2/C(=N/O)Nc2ccc(F)c(Br)c2)CC1 [Embodiment 50]
0.1 to 1	0.1 to 1	COc1ccc(NC(=O)Nc2conc2/C(=N/O)Nc2ccc(F)c(Br)c2)cc1 [Embodiment 100, (Z)-1-(4-(N-(3-bromo-4-fluorophenyl)-N′-hydroxyaminoiminomethyl)-isoxazole-3-substituted)-4-(4-methoxyphenyl)urea]
> 1	> 1	O=C(Nc1cc[nH]c1)Nc1cocc1/C(=N/O)Nc1ccc(F)c(Br)c1 [Embodiment 76, (Z)-1-(4-(N-(3-bromo-4-fluorophenyl)-N′-hydroxyaminoiminomethyl)-furan-3-substituted)-3-(1H-pyrrole-3-substituted)urea]
